Source: ChEMBL document CHEMBL1201862, “PubChem BioAssay data set” (2004)
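Compound exposure: 48 hours, 5 concentrations, 96-well plates. The concentration for 50% growth inhibition is given as GI50.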 Active and inactive are the calls of the source. Rule as the data show it: active = GI50 up to about 1.1 µM and inactive = higher.

Columns and labels:
Test in all cases: NCI tumour cell line growth inhibition, 48 h
LOX IMVI = test system: LOX IMVI
HOP-62 = test system: HOP-62
NCI-H226 = test system: NCI-H226
SK-MEL-28 = test system: SK-MEL-28
OVCAR-5 = test system: OVCAR-5
SK-MEL-2 = test system: SK-MEL-2
A498 = test system: A498
KM12 = test system: KM12
SK-OV-3 = test system: SK-OV-3
CAKI-1 = test system: CAKI-1
OVCAR-8 = test system: OVCAR-8
SW-620 = test system: SW-620
M14 = test system: M14
SNB-75 = test system: SNB-75
HCC 2998 = test system: HCC 2998
RPMI-8226 = test system: RPMI-8226
SK-MEL-5 = test system: SK-MEL-5
U-251 = test system: U-251
UACC-257 = test system: UACC-257

Measured: GI50

Cc1ccc(/N=N/c2c(-c3ccccc3)nn(C(=O)CC(=O)Nc3ccc(Cl)cc3)c2-c2ccccc2)cc1
inactive: LOX IMVI 46.7 µM | HOP-62 33.8 µM | NCI-H226 36.6 µM | SK-MEL-28 > 100 µM | OVCAR-5 48.6 µM | SK-MEL-2 81.8 µM | A498 31.8 µM | KM12 38.3 µM | SK-OV-3 > 100 µM | CAKI-1 55 µM | OVCAR-8 32.1 µM | SW-620 90.8 µM | M14 65.2 µM | SNB-75 20.6 µM | HCC 2998 56.1 µM | RPMI-8226 18.8 µM | SK-MEL-5 90.8 µM | U-251 40 µM | UACC-257 > 100 µM

CC1c2[nH]c3ccccc3c2CCN1O (stereo unspecified)
inactive: LOX IMVI > 100 µM | NCI-H226 23.1 µM | SK-MEL-28 > 100 µM | OVCAR-5 > 100 µM | SK-MEL-2 > 100 µM | A498 > 100 µM | KM12 > 100 µM | SK-OV-3 > 100 µM | CAKI-1 > 100 µM | OVCAR-8 > 100 µM | SW-620 > 100 µM | M14 > 100 µM | SNB-75 68.5 µM | HCC 2998 > 100 µM | RPMI-8226 > 100 µM | SK-MEL-5 > 100 µM | U-251 > 100 µM | UACC-257 > 100 µM

CSc1nc(NC2OCC(OC(C)=O)C(OC(C)=O)C2OC(C)=O)c2c(n1)OCC2=O (stereo unspecified)
inactive: LOX IMVI > 100 µM | HOP-62 > 100 µM | NCI-H226 > 100 µM | SK-MEL-28 > 100 µM | OVCAR-5 > 100 µM | SK-MEL-2 > 100 µM | A498 > 100 µM | KM12 > 100 µM | SK-OV-3 > 100 µM | CAKI-1 > 100 µM | OVCAR-8 > 100 µM | SW-620 > 100 µM | M14 > 100 µM | SNB-75 > 100 µM | HCC 2998 > 100 µM | RPMI-8226 > 100 µM | SK-MEL-5 > 100 µM | U-251 > 100 µM | UACC-257 > 100 µM

C=CC(OCC)(OCC)OCC
inactive: LOX IMVI 66.2 µM | HOP-62 > 100 µM | NCI-H226 > 100 µM | SK-MEL-28 > 100 µM | OVCAR-5 > 100 µM | SK-MEL-2 > 100 µM | A498 > 100 µM | KM12 > 100 µM | SK-OV-3 > 100 µM | CAKI-1 > 100 µM | OVCAR-8 > 100 µM | M14 > 100 µM | SNB-75 > 100 µM | HCC 2998 > 100 µM | RPMI-8226 61.1 µM | SK-MEL-5 > 100 µM | U-251 > 100 µM | UACC-257 > 100 µM

C=C1CCC2C(C)(CO)C(O)CCC2(C)C1C/C=C1/CCOC1=O (stereo unspecified)
inactive: LOX IMVI > 100 µM | HOP-62 > 100 µM | NCI-H226 > 100 µM | OVCAR-5 > 100 µM | SK-MEL-2 > 100 µM | A498 > 100 µM | KM12 > 100 µM | SK-OV-3 > 100 µM | CAKI-1 > 100 µM | OVCAR-8 > 100 µM | SW-620 > 100 µM | M14 > 100 µM | SNB-75 > 100 µM | HCC 2998 > 100 µM | RPMI-8226 > 100 µM | SK-MEL-5 > 100 µM | U-251 > 100 µM | UACC-257 > 100 µM

COC(=O)C1Cc2c(n(C)c3ccccc23)C(c2ccccc2)N1 (stereo unspecified)
inactive: LOX IMVI 78.7 µM | NCI-H226 22.6 µM | SK-MEL-28 > 100 µM | OVCAR-5 > 100 µM | SK-MEL-2 47.6 µM | A498 48.4 µM | KM12 > 100 µM | SK-OV-3 > 100 µM | CAKI-1 > 100 µM | OVCAR-8 > 100 µM | SW-620 > 100 µM | M14 > 100 µM | SNB-75 > 100 µM | HCC 2998 49.4 µM | RPMI-8226 63.7 µM | SK-MEL-5 21.1 µM | U-251 48 µM | UACC-257 15.2 µM

Cc1cn2c(=O)c3ncn(C4OC(CO)C(O)C4O)c3n(C)c2n1 (stereo unspecified)
inactive: LOX IMVI > 100 µM | NCI-H226 > 100 µM | SK-MEL-28 > 100 µM | OVCAR-5 > 100 µM | SK-MEL-2 > 100 µM | A498 > 100 µM | KM12 > 100 µM | SK-OV-3 > 100 µM | CAKI-1 > 100 µM | OVCAR-8 > 100 µM | SW-620 > 100 µM | M14 > 100 µM | SNB-75 > 100 µM | HCC 2998 > 100 µM | RPMI-8226 > 100 µM | SK-MEL-5 > 100 µM | U-251 > 100 µM | UACC-257 > 100 µM

O=C(/C=C/c1ccc(Cl)c(Cl)c1)C1CCC(Cl)CC1 (stereo unspecified)
inactive: LOX IMVI 16.1 µM | HOP-62 57.3 µM | NCI-H226 31.2 µM | SK-MEL-28 17.5 µM | OVCAR-5 17.4 µM | A498 22.4 µM | KM12 19.2 µM | SK-OV-3 18.1 µM | CAKI-1 21.3 µM | OVCAR-8 18.8 µM | SW-620 16.9 µM | M14 18.5 µM | SNB-75 19.8 µM | HCC 2998 17.2 µM | RPMI-8226 4.69 µM | SK-MEL-5 18.3 µM | U-251 15.1 µM | UACC-257 18.5 µM
